How the values were obtained:
[1] = test system: serum testosterone; assay: LHRH agonist-induced serum testosterone in the dog (RIA); assay type: in vivo; settings: dogs; for prevention of the LHRH agonist-induced rise in serum testosterone: per os three times daily with 50 μg LHRH-A daily (ketoconazole 200 mg; aminoglutethimide 125 mg plus hydrocortisone), first days of treatment, FIG. 2 and 3
Method: Eighteen mongrel dogs weighing between 20-30 kg were randomly divided into three groups. The animals were housed one per cage and fed Purina Dog Chow and tap water ad libitum.
The animals of group 1 were injected daily (at 0700h) with 50 μg of the LHRH agonist [D-Trp^6, des-Gly-NH2^10 ]LHRH ethylamide (LHRH-A). In group 2, the animals were also injected daily with 50 μg of LHRH-A and took in addition 200 mg of ketoconazole per os at 0700h, 1500h and 2300h. The animals of group 3 received daily 50 μg of LHRH-A and 125 mg of aminoglutethimide per os at 0700h, 1500h, 2300h plus 10 mg of hydrocortisone twice daily.
Blood samples were collected at 0700h, 0900h, 1100h and 1500h one day before treatment and every day during the treatment. Plasma was extracted with diethyl ether and testosterone was separated on LH-20 columns before RIA measurements.

[2] = test system: testosterone levels; settings: rodents, in combination with chronic administration of Leuprolide; Santen et al. 1984; cited from earlier work
[3] = test system: advanced breast cancer; settings: cited from earlier work

CCC1(c2ccc(N)cc2)CCC(=O)NC1=O (stereo not shown) [aminoglutethimide, 3-(4-aminophenyl)-3-ethyl-2,6-piperidinedione]
prevention of the LHRH agonist-induced rise in serum testosterone [1]: almost completely prevented

CCNC(=O)[C@@H]1CCCN1C(=O)[C@H](CCCNC(=N)N)NC(=O)[C@H](CC(C)C)NC(=O)[C@@H](Cc1c[nH]c2ccccc12)NC(=O)[C@H](Cc1ccc(O)cc1)NC(=O)[C@H](CO)NC(=O)[C@H](Cc1c[nH]c2ccccc12)NC(=O)[C@H](Cc1c[nH]cn1)NC(=O)[C@@H]1CCC(=O)N1 [[D-Trp^6 des-Gly-NH2^10]LHRH ethylamide, [D-Trp^6, des-Gly-NH2^10]LHRH ethylamide]
level of serum testosterone on day 19 ([1]; daily injection of 50 μg, day 19, FIG. 1): near-castration levels
increase in serum testosterone ([1]; daily injection of 50 μg, one to six days following start of treatment, FIG. 1): approximately 500 % above control

CC(=O)N1CCN(c2ccc(OCC3COC(Cn4ccnc4)(c4ccc(Cl)cc4Cl)O3)cc2)CC1 (stereo not shown) [ketoconazole]
prevention of the LHRH agonist-induced rise in serum testosterone [1]: almost completely prevented
basal and Leuprolide stimulated testosterone levels [2]: decreased

CC/C(=C(\c1ccccc1)c1ccc(OCCN(C)C)cc1)c1ccccc1 [Tamoxifen, (Z)-2-[4-(1,2-diphenyl-1-butenyl)phenoxy]-N,N-dimethylethanamine]
remission of advanced breast cancer, share of the patients treated ([3]; Tamoxifen alone, Mouridsen et al. 1978): about 30%
objective remission of breast cancer ([3]; combined use with the LH-RH agonist Buserelin, Klijn et al. 1984): 35%
